# Source: patent US11780830B2, “Triazolone derivatives or salts thereof and pharmaceutical compositions comprising the same” (YUHAN CORPORATION, priority 2018, dated 2023)
# Counter-ions that a name gives are not always drawn.
# Columns and labels:
# Assay type in all cases: biochemical
# recombinant human VAP-1 = target: T1, recombinant human VAP-1 (Homo sapiens, UniProt Q16853); assay: Activity on recombinant human VAP-1, HRP-coupled Amplex Red hydrogen peroxide assay; conditions: substrate 1 mM benzylamine; compound incubated with enzyme at 37° C. for 30 minutes; pH 7.4; read-out: Inhibitory Activity (IC50, nM) human VAP-1
# T1 construct: purchased R&D systems
# T1 sequence (Q16853 1-763): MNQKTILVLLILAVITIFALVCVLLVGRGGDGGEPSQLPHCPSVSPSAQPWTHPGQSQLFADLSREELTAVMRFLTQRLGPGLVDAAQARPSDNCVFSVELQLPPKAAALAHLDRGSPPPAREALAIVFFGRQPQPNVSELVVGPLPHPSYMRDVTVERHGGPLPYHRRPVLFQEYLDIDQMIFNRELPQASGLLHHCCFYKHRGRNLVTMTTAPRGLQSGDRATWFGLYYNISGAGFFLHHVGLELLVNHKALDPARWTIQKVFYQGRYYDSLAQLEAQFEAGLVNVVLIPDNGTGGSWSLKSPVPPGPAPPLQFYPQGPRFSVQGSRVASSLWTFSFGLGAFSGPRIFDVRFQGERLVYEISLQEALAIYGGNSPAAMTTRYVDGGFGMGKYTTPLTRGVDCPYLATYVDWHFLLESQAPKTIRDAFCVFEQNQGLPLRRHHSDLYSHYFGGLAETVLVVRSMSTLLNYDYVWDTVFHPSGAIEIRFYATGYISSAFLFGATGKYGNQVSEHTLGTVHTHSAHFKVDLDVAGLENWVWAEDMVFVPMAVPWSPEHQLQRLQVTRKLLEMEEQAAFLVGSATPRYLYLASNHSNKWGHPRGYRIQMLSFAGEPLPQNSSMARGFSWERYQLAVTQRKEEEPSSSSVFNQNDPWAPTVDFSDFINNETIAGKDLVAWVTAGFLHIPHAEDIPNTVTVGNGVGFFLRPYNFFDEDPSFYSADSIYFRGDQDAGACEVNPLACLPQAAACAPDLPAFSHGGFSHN
# Method in brief: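 Compounds were preincubated with purified enzyme in 50 mM sodium phosphate pH 7.4 at 37 °C for 30 min, then 200 uM Amplex Red, 1 mM benzylamine and 1 U/mL HRP were added. Resorufin fluorescence (ex 544/em 590 nm) was followed over 1-2 h; IC50 came from 4-parameter fits of signal-rate inhibition.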
# [1] = target: T2, recombinant human MAO-A (monoamine oxidase-A) (Homo sapiens, UniProt P21397); assay: Activity on recombinant human MAO-A, method similar to the VAP-1 assay; conditions: substrate 0.5 mM tyramine; read-out: Inhibitory Activity (IC50, nM) MAO-A
# T2 construct: purchased Sigma-Aldrich
# T2 sequence (P21397 1-527): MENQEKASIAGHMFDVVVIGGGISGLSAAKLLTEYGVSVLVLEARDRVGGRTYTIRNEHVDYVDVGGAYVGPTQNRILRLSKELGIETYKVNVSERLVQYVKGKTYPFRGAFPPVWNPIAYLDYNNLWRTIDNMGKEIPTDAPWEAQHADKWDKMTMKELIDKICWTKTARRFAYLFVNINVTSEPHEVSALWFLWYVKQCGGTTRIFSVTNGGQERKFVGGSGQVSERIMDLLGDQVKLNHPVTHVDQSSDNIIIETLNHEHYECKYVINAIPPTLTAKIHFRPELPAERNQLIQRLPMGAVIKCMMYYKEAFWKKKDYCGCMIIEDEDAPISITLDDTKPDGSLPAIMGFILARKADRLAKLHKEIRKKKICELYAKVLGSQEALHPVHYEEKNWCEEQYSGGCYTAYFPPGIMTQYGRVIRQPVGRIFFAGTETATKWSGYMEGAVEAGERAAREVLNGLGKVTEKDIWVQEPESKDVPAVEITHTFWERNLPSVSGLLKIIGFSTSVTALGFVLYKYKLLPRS
# Method in brief: (§1)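 8-point, 1:3 dose-response, four-parameter logistic IC50 from reduction in fluorescence rate versus DMSO control. HRP/Amplex Red detection of H2O2 (ex 544, em 590 nm) after 30 min, 37 °C compound–enzyme preincubation in pH 7.4 phosphate buffer. MAO-A substrate: 0.5 mM tyramine; MAO-B: 1 mM benzylamine.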
# [2] = target: T3, recombinant human MAO-B (monoamine oxidase-B) (Homo sapiens, UniProt P27338); assay: Activity on recombinant human MAO-B, method similar to the VAP-1 assay; conditions: substrate 1 mM benzylamine; read-out: Inhibitory Activity (IC50, nM) MAO-B
# T3 construct: purchased Sigma-Aldrich
# T3 sequence (P27338 1-520): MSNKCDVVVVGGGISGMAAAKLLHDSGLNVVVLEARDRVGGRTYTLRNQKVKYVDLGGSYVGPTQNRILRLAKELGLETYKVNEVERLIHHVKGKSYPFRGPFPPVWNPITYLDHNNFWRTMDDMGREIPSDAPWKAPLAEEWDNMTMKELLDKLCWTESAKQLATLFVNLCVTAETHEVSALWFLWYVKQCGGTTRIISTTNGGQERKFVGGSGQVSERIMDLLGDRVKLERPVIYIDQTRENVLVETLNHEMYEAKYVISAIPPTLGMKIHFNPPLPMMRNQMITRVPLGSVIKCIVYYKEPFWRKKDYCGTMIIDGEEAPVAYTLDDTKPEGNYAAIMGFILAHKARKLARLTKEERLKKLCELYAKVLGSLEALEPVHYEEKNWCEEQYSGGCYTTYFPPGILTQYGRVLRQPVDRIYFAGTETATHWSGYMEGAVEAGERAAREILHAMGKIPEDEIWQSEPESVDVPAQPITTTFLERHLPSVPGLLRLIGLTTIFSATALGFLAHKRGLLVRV
# Method in brief: as §1
# [3] = target: T4, recombinant human DAO (diamine oxidase) (Homo sapiens, UniProt P19801); assay: Activity on recombinant human DAO, method similar to the VAP-1 assay; conditions: substrate 1 mM putrescine; read-out: Inhibitory Activity (IC50, nM) DAO
# T4 construct: purchased R&D systems
# T4 sequence (P19801 20-751): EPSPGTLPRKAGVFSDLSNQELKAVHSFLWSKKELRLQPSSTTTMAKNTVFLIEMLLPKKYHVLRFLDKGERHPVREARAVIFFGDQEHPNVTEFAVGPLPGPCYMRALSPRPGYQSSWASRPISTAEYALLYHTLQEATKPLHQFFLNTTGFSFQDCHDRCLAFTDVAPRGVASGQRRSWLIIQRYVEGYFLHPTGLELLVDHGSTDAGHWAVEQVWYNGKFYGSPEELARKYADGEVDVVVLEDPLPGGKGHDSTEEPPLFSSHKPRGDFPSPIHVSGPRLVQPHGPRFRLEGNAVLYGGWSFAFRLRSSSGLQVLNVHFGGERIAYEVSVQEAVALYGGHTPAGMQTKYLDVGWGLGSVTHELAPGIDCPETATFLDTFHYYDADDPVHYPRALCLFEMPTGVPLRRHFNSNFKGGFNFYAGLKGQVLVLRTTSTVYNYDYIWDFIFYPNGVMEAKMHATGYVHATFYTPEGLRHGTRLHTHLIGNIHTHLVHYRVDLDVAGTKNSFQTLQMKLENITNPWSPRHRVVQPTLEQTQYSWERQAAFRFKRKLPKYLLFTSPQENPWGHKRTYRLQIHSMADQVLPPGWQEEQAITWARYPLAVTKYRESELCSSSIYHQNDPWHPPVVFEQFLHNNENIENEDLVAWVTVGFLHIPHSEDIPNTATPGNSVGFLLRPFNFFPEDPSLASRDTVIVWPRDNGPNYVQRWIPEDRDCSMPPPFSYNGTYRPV
# Method in brief: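 Inhibition of recombinant human diamine oxidase (DAO, R&D systems) was assessed by the same approach as the VAP-1 assay, using 1 mM putrescine as substrate. Hydrogen peroxide formed was detected through an HRP-coupled Amplex Red reaction yielding fluorescent resorufin, read at 544 nm excitation and 590 nm emission. IC50 values came from four-parameter logistic fitting in GraphPad Prism.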
IC50 (recombinant human VAP-1) [nM],IC50 [1] [nM],IC50 [2] [nM],IC50 [3] [nM],SMILES
1.1,> 100000,750,1100,"NC/C(=C\F)Cn1ncn(Cc2ccc(C#Cc3cnc4c(c3)NCCO4)s2)c1=O [Example 135, 2-[(E)-2-(aminomethyl)-3-fluoro-allyl]-4-[[5-[2-(2,3-dihydro-1H-pyrido[2,3-b][1,4]oxazin-7-yl)ethynyl]-2-thienyl]methyl]-1,2,4-triazol-3-one]"
1.5,20000,640,790,"NC/C(=C\F)Cn1ncn(Cc2ccc(C#Cc3ccc4c(n3)OCCN4)s2)c1=O [Example 136, 2-[(E)-2-(aminomethyl)-3-fluoro-allyl]-4-[[5-[2-(2,3-dihydro-1H-pyrido[2,3-b][1,4]oxazin-6-yl)ethynyl]-2-thienyl]methyl]-1,2,4-triazol-3-one hydrochloride]"
1.4,> 100000,390,1400,"NC/C(=C\F)Cn1ncn(Cc2ccc(C#Cc3cnc4c(c3)OCCN4)s2)c1=O [Example 137, 2-[(E)-2-(aminomethyl)-3-fluoro-allyl]-4-[[5-[2-(3,4-dihydro-2H-pyrido[3,2-b][1,4]oxazin-7-yl)ethynyl]-2-thienyl]methyl]-1,2,4-triazol-3-one]"
0.2,> 100000,2300,470,"NC/C(=C\F)Cn1ncn(Cc2ccc(C#Cc3cnc4c(c3)NC(=O)CO4)s2)c1=O [Example 138, 7-[2-[5-[[1-[(E)-2-(aminomethyl)-3-fluoro-allyl]-5-oxo-1,2,4-triazol-4-yl]methyl]-2-thienyl]ethynyl]-1H-pyrido[2,3-b][1,4]oxazin-2-one hydrochloride]"
0.5,> 100000,73,290,"NC/C(=C\F)Cn1ncn(Cc2ccc(C#Cc3cnc4c(c3)OCC(=O)N4)s2)c1=O [Example 139, 7-[2-[5-[[1-[(E)-2-(aminomethyl)-3-fluoro-allyl]-5-oxo-1,2,4-triazol-4-yl]methyl]-2-thienyl]ethynyl]-4H-pyrido[3,2-b][1,4]oxazin-3-one hydrochloride]"
9.2,> 100000,> 10000,4200,"NC/C(=C\F)Cn1ncn(CCc2cccs2)c1=O [Example 141, 2-[(2E)-2-(aminomethyl)-3-fluoroprop-2-en-1-yl]-4-[2-(thiophen-2-yl)ethyl]-2,4-dihydro-3H-1,2,4-triazol-3-one]"
2.9,> 100000,1000,11000,"Cn1cc(-c2ccc(Cn3cnn(C/C(=C/F)CN)c3=O)s2)cn1 [Example 142, 2-[(2E)-2-(aminomethyl)-3-fluoroprop-2-en-1-yl]-4-{[5-(1-methyl-1H-pyrazol-4-yl)thiophen-2-yl]methyl}-2,4-dihydro-3H-1,2,4-triazol-3-one]"
1.4,> 100000,2600,1700,"CC(C)n1cc(-c2ccc(Cn3cnn(C/C(=C/F)CN)c3=O)s2)ccc1=O [Example 143, 5-[5-({1-[(2E)-2-(aminomethyl)-3-fluoroprop-2-en-1-yl]-5-oxo-1,5-dihydro-4H-1,2,4-triazol-4-yl}methyl)thiophen-2-yl]-1-(propan-2-yl)pyridin-2(1H)-one]"
4.6,> 100000,13000,7400,"NC/C(=C\F)Cn1ncn(Cc2ccc(-c3ccc(-c4noc(=O)[nH]4)cc3)s2)c1=O [Example 144, 3-{4-[5-({1-[(2E)-2-(aminomethyl)-3-fluoroprop-2-en-1-yl]-5-oxo-1,5-dihydro-4H-1,2,4-triazol-4-yl}methyl)thiophen-2-yl]phenyl}-1,2,4-oxadiazol-5(4H)-one]"
4.4,> 100000,> 100000,490,"NC/C(=C\F)Cn1ncn(Cc2ccc(-c3ccc(CN4CCOCC4)nc3)s2)c1=O [Example 145, 2-[(2E)-2-(aminomethyl)-3-fluoroprop-2-en-1-yl]-4-({5-[6-(morpholin-4-ylmethyl)pyridin-3-yl]thiophen-2-yl}methyl)-2,4-dihydro-3H-1,2,4-triazol-3-one]"
0.4,> 100000,3900,1300,"NC/C(=C\F)Cn1ncn(Cc2ccc(-c3cc4c(cc3F)NC(=O)CC4)s2)c1=O [Example 146, 6-[5-({1-[(2E)-2-(aminomethyl)-3-fluoroprop-2-en-1-yl]-5-oxo-1,5-dihydro-4H-1,2,4-triazol-4-yl}methyl)thiophen-2-yl]-7-fluoro-3,4-dihydroquinolin-2(1H)-one]"
0.3,> 100000,6700,1000,"CN1Cc2cc(-c3ccc(Cn4cnn(C/C(=C/F)CN)c4=O)s3)ccc2NC1=O [Example 147, 6-[5-({1-[(2E)-2-(aminomethyl)-3-fluoroprop-2-en-1-yl]-5-oxo-1,5-dihydro-4H-1,2,4-triazol-4-yl}methyl)thiophen-2-yl]-3-methyl-3,4-dihydroquinazolin-2(1H)-one]"
